From article PMC12693701, “Glucosinolate-Derived Metabolites from Barbarea vulgaris (Brassicaceae): Evaluation of Antimicrobial, Antioxidant, and Anti-Inflammatory Potentials” (Molecules, 2025)
Converted amounts (≈) assume the structure as drawn.

What was measured:
A. flavus ATCC 9170 = assay: Microdilution MIC/MMC; type: cell-based, Aspergillus flavus; conditions: A. flavus ATCC 9170, reference antibiotics/antimycotic; for MIC: Aspergillus flavus, ATCC9170, read-out: MIC
Protocol: (§1) The antimicrobial activity was evaluated against 15 microorganisms. This included 11 bacterial strains: four standard strains (Staphylococcus aureus ATCC 25923, Bacillus subtilis ATCC 6633, Bacillus pumilus NCTC 8241, and Escherichia coli ATCC 25922) and six clinical or environmental isolates (Staphylococcus aureus, Escherichia coli, Bacillus cereus, Proteus mirabilis, Salmonella enterica, and Klebsiella pneumoniae). One probiotic strain, Bifidobacterium animalis subsp. lactis was tested. In addition, four fungal strains, Candida albicans ATCC 10231, Trichoderma viride ATCC 13233, Aspergillus flavus ATCC 9170, and Fusarium solani ATCC 11712 were tested. The bacterial strains were kept in glycerol stock at −80 °C and the fungal strains in paraffin oil stock at 4 °C.
(§2) Bacterial and yeast suspensions were prepared using the direct colony method, as previously described by Andrews. The turbidity of the initial suspensions was adjusted to match the 0.5 McFarland standard using a densitometer (Biosan, Riga, Latvia), corresponding to approximately 10^8 colony-forming units (CFU)/mL for bacterial cells and 10^6 CFU/mL for yeast cells. Subsequently, 1:100 dilutions of the initial suspensions were prepared in sterile 0.85% saline. Fungal spore suspensions were obtained by gently harvesting spores from agar slopes containing mature mycelial growth. The collected spore suspensions were then diluted 1:1000 in sterile 0.85% saline prior to use.
(§3) Antimicrobial activity was evaluated by determining the minimum inhibitory concentration (MIC) and minimum microbicidal concentration (MMC) using the microdilution plate method with resazurin as an indicator [28]. In the 96-well plates, 100 μL of Mueller–Hinton broth (Torlak, Belgrade, Serbia) for bacterial testing and Sabouraud broth (Torlak, Belgrade, Serbia) for fungal testing were dispensed into each well. The compounds under investigation were initially dissolved in a 10% dimethyl sulfoxide (DMSO) solution, followed by dilution in sterile distilled water, resulting in a working compound solution containing 1% DMSO. A 100 μL aliquot of the stock solution of the tested compound was added to the first row, and twofold serial dilutions were then carried out using a multichannel pipette. The resulting concentration range was from 5 to 0.039 mg/mL. The inoculated microtiter plates were incubated at 37 °C for 24 h for bacteria, at 28 °C for 48 h for yeasts, and at 28 °C for 72 h for molds.
(§4) Each test also included growth control and sterility control. All tests were conducted in duplicate. MIC was defined as the lowest concentration of tested compounds that prevented resazurin color change from blue to pink. For molds, MIC values of the tested compound were determined as the lowest concentration that inhibited visible mycelia growth. MMC was determined by inoculation of the nutrient agar medium by plating […] of samples from wells, where no indicator color change was recorded. At the end of the incubation period, the lowest concentration with no growth (no colony) was defined as MMC.
(§5) Doxycycline, ampicillin and amphotericin B (- Sigma-Aldrich, St. Louis, MO, USA) and ketoconazole (Hemofarm A.D., Vršac, Serbia) were dissolved in a nutrient liquid medium. Doxycycline is a broad-spectrum antibiotic effective against both aerobic and anaerobic Gram-positive and Gram-negative bacteria. Ampicillin, a beta-lactam antibiotic, primarily targets Gram-positive bacteria but also some Gram-negative strains. Amphotericin B is an antifungal drug often used for serious systemic fungal infections and is one of the effective treatments for fungal infections caused by Aspergillus sp. Ketoconazole is an antifungal agent used to inhibit the growth of Candida species.

C. albicans ATCC 10231 = assay: Microdilution MIC/MMC with resazurin; type: cell-based, Candida albicans; conditions: C. albicans ATCC 10231, reference antibiotics/antimycotic; for MIC: Candida albicans, ATCC10231, read-out: MIC
Protocol: as §1, §2, §3, §4, §5

T. viride ATCC 13233 = assay: Microdilution MIC/MMC; type: cell-based, Trichoderma viride; conditions: T. viride ATCC 13233, reference antibiotics/antimycotic; for MIC: Trichoderma viride, ATCC13233, read-out: MIC
Protocol: as §1, §2, §3, §4, §5

B. subtilis ATCC 6633 = assay: Microdilution MIC/MMC with resazurin; type: cell-based, Bacillus subtilis; conditions: B. subtilis ATCC 6633, reference antibiotics/antimycotic; for MIC: Bacillus subtilis, ATCC6633, read-out: MIC
Protocol: as §1, §2, §3, §4, §5

P. mirabilis = assay: Microdilution MIC/MMC with resazurin; type: cell-based, Proteus mirabilis; conditions: P. mirabilis, reference antibiotics/antimycotic; for MIC: Proteus mirabilis, read-out: MIC
Protocol: as §1, §2, §3, §4, §5

B. cereus = assay: Microdilution MIC/MMC with resazurin; type: cell-based, Bacillus cereus; conditions: B. cereus, reference antibiotics/antimycotic; for MIC: Bacillus cereus, read-out: MIC
Protocol: as §1, §2, §3, §4, §5

[1] = tested on: B. animalis subsp. lactis; assay: Microdilution MIC/MMC with resazurin; type: cell-based, Bifidobacterium animalis subsp. lactis; conditions: B. animalis subsp. lactis, reference antibiotics/antimycotic; for MIC: Bifidobacterium animalis, read-out: MIC
Protocol: as §1, §2, §3, §4, §5

K. pneumoniae = assay: Microdilution MIC/MMC with resazurin; type: cell-based, Klebsiella pneumoniae; conditions: K. pneumoniae, reference antibiotics/antimycotic; for MIC: Klebsiella pneumoniae, read-out: MIC
Protocol: as §1, §2, §3, §4, §5

E. coli ATCC 25922 = assay: Microdilution MIC/MMC with resazurin; type: cell-based, Escherichia coli; conditions: E. coli ATCC 25922, reference antibiotics/antimycotic; for MIC: Escherichia coli, ATCC25922, read-out: MIC
Protocol: as §1, §2, §3, §4, §5

E. coli = assay: Microdilution MIC/MMC with resazurin; type: cell-based, Escherichia coli; conditions: E. coli isolate, reference antibiotics/antimycotic; for MIC: Escherichia coli, read-out: MIC
Protocol: as §1, §2, §3, §4, §5

S. aureus = assay: Microdilution MIC/MMC with resazurin; type: cell-based, Staphylococcus aureus; conditions: S. aureus isolate, reference antibiotics/antimycotic; for MIC: Staphylococcus aureus, read-out: MIC
Protocol: as §1, §2, §3, §4, §5

S. aureus ATCC 25923 = assay: Microdilution MIC/MMC with resazurin; type: cell-based, Staphylococcus aureus; conditions: S. aureus ATCC 25923, reference antibiotics/antimycotic; for MIC: Staphylococcus aureus, ATCC25923, read-out: MIC
Protocol: as §1, §2, §3, §4, §5

S. enterica = assay: Microdilution MIC/MMC with resazurin; type: cell-based, Salmonella enterica; conditions: reference antibiotics/antimycotic; for MIC: Salmonella enterica
Protocol: as §1, §2, §3, §4, §5

B. pumilus NCTC 8241 = assay: Microdilution MIC/MMC with resazurin; type: cell-based, Bacillus pumilus; conditions: B. pumilus NCTC 8241, reference antibiotics/antimycotic
Protocol: as §1, §2, §3, §4, §5

F. solani ATCC 11712 = assay: Microdilution MIC/MMC; type: cell-based, Fusarium solani; conditions: F. solani ATCC 11712, reference antibiotics/antimycotic
Protocol: as §1, §2, §3, §4, §5

[2] = ABTS radical scavenging assay; conditions: mean ± SD
Protocol: The ABTS radical cation solution was prepared following the previously described protocol. Different concentrations of the analyzed samples were prepared in DMSO. The test samples were prepared following the specified procedure: 20 µL of sample was combined with 980 µL of methanol, followed by the addition of 1000 µL of ABTS solution. Absorbance was measured at 734 nm. All measurements were performed in triplicate.

## C[C@@H]1[C@H](O)[C@@H](C)/C=C/C=C/C=C/C=C/C=C/C=C/C=C/[C@H](O[C@@H]2O[C@H](C)[C@@H](O)[C@H](N)[C@@H]2O)C[C@@H]2O[C@](O)(C[C@@H](O)C[C@@H](O)[C@H](O)CC[C@@H](O)C[C@@H](O)CC(=O)O[C@H]1C)C[C@H](O)[C@H]2C(=O)O [Amphotericin B, reference compound]
A. flavus ATCC 9170
  MMC: 0.78 µg/mL
  MIC: 0.39 µg/mL (≈ 0.422 µM)
C. albicans ATCC 10231
  MMC: <0.098 µg/mL
  MIC: < 0.098 µg/mL
T. viride ATCC 13233
  MMC: 1.56 µg/mL
  MIC: 0.78 µg/mL (≈ 0.844 µM)

## CC1(C)S[C@@H]2[C@H](NC(=O)[C@H](N)c3ccccc3)C(=O)N2[C@H]1C(=O)O [Ampicillin, reference compound]
B. subtilis ATCC 6633
  MMC: 4 µg/mL
  MIC: 3 µg/mL (≈ 8.59 µM)
P. mirabilis
  MMC: >128 µg/mL
  MIC: > 128 µg/mL
B. cereus
  MMC: 6 µg/mL
  MIC: 4 µg/mL (≈ 11.4 µM)
[1]
  MMC: 0.12 µg/mL
  MIC: < 0.06 µg/mL
K. pneumoniae
  MMC: >128 µg/mL
  MIC: > 128 µg/mL
E. coli ATCC 25922
  MMC: 0.5 µg/mL
  MIC: 0.37 µg/mL (≈ 1.06 µM)
E. coli
  MMC: 2.1 µg/mL
  MIC: 1.2 µg/mL (≈ 3.43 µM)
S. aureus
  MMC: <0.06 µg/mL
  MIC: < 0.06 µg/mL
S. aureus ATCC 25923
  MMC: 0.75 µg/mL
  MIC: 0.25 µg/mL (≈ 0.715 µM)
S. enterica
  MIC: 1 µg/mL (≈ 2.86 µM)
  MMC: 1 µg/mL
B. pumilus NCTC 8241
  MMC: 12 µg/mL
B. pumilus NCTC 8241; Bacillus pumilus, NCTC8241, read-out: MIC
  MIC: 8 µg/mL (≈ 22.9 µM)

## C[C@H]1c2cccc(O)c2C(=O)C2=C(O)[C@]3(O)C(=O)C(C(N)=O)=C(O)[C@@H](N(C)C)[C@@H]3[C@@H](O)[C@@H]21 [Doxycycline, reference compound]
B. subtilis ATCC 6633
  MMC: 31.25 µg/mL
  MIC: 1.95 µg/mL (≈ 4.39 µM)
P. mirabilis
  MMC: 62.5 µg/mL
  MIC: 15.6 µg/mL (≈ 35.2 µM)
B. cereus
  MMC: 7.81 µg/mL
  MIC: 0.977 µg/mL (≈ 2.2 µM)
[1]
  MMC: 8 µg/mL
  MIC: 4 µg/mL (≈ 9 µM)
K. pneumoniae
  MMC: 32 µg/mL
  MIC: 2 µg/mL (≈ 4.5 µM)
E. coli ATCC 25922
  MMC: 31.25 µg/mL
  MIC: 15.6 µg/mL (≈ 35.2 µM)
E. coli
  MMC: 62.5 µg/mL
  MIC: 15.6 µg/mL (≈ 35.2 µM)
S. aureus
  MMC: 7.81 µg/mL
  MIC: 0.45 µg/mL (≈ 1.01 µM)
S. aureus ATCC 25923
  MMC: 3.75 µg/mL
  MIC: 0.224 µg/mL (≈ 0.504 µM)
S. enterica
  MIC: 15.6 µg/mL (≈ 35.2 µM)

## CC(=O)N1CCN(c2ccc(OCC3COC(Cn4ccnc4)(c4ccc(Cl)cc4Cl)O3)cc2)CC1 (stereo not shown) [Ketoconazole, reference compound]
A. flavus ATCC 9170
  MMC: 1.96 µg/mL
  MIC: < 0.49 µg/mL
C. albicans ATCC 10231
  MMC: 1.96 µg/mL
  MIC: 1.96 µg/mL (≈ 3.69 µM)
T. viride ATCC 13233
  MMC: 125 µg/mL
  MIC: 62.5 µg/mL (≈ 118 µM)
F. solani ATCC 11712
  MMC: 0.156 µg/mL
F. solani ATCC 11712; Fusarium solani, ATCC11712, read-out: MIC
  MIC: 0.08 µg/mL (≈ 0.151 µM)

## Cc1c(C)c2c(c(C)c1O)CCC(C)(C(=O)O)O2 (stereo not shown) [Trolox, reference compound]
[2]; 25 µM
  ABTS Scavenging Ability: 97.5 ± 0.2%
[2]; 50 µM
  ABTS Scavenging Ability: 99.3 ± 0.1%
[2]; 100 µM
  ABTS Scavenging Ability: 99.5 ± 0.3%
